Like-named read-outs stand apart in the source and are kept apart here.
Legend:
[1] = tested on: C. elegans wild-type strain N2; experiment: Same C. elegans pumping assay format using wild-type strain N2; assay type: in vivo; conditions: read-out: EC50 (μM) Wild type worm N2
From the text: (§1) The screening of the compounds according to the present invention has been performed in the C. elegans based high-throughput screen for Kv4.3 modulators described above. The method for testing the activity on human Kv4.3 of the compounds according to the invention with C. elegans strains expressing human Kv4.3 for their activity is the same as the method described in WO 03/097682. The method for testing the compounds on wild-type C. elegans strains not expressing human Kv4.3 is the same as the method described in WO 00/63427. Briefly, UG1755 animals have been grown in large numbers and staged young adults (no or only few eggs inside the uterus) have been harvested on the day of screening. Approximately 125 animals in 80 μl buffer have been dispensed per well of a “U shaped 96-well compound plate The compound plate contained already compound material at a final concentration of 30 μM in 0.3% DMSO. After one hour incubation 10 μl of the fluorescent label Calcein AM (CAM) have been added to achieve a final concentration of 5 μM CAM and 0.8% DMSO. After another four hours of incubation at 20° C., the drinking of C. elegans animals (or the “reaction 8 measured by the uptake of CAM) has been stopped by adding 10 μl of a 60 μM ivermectin solution. The fluorescence intensity (counts per second) has been measured 40 minutes after adding ivermectin with the Wallac plate reader at a wavelength of 535 nm (after excitation at 485 nm).
These compounds have been also tested in the same assay format using a C. elegans wild-type strain N2 and the corresponding EC50 has been calculated. The ratio of the EC50s obtained for a compound on the two strains (transgenic expressing human Kv4.3 and wild-type) gives an indication on whether said compound is acting on human Kv4.3. […]

human Kv4.3 [2] = molecular target: T1, human Kv4.3 (Homo sapiens, UniProt Q9UK17); experiment: C. elegans based high-throughput screen for Kv4.3 modulators (pharynx pumping, Calcein AM uptake), transgenic strain UG1755; assay type: in vivo; conditions: for Ratio N2/Kv4.3: EC50 on N2 divided by EC50 on the Kv4.3 expressing strain, cut-off 1.8; for EC50: transgenic strain UG1755 expressing human Kv4.3, read-out: EC50 (μM) Kv4.3 worm
T1 construct: expressed in transfected cells; host or cells: transgenic C. elegans strain UG1755 (N2 injected with plasmid pGV8, integrated array)
T1 sequence (Q9UK17 1-655): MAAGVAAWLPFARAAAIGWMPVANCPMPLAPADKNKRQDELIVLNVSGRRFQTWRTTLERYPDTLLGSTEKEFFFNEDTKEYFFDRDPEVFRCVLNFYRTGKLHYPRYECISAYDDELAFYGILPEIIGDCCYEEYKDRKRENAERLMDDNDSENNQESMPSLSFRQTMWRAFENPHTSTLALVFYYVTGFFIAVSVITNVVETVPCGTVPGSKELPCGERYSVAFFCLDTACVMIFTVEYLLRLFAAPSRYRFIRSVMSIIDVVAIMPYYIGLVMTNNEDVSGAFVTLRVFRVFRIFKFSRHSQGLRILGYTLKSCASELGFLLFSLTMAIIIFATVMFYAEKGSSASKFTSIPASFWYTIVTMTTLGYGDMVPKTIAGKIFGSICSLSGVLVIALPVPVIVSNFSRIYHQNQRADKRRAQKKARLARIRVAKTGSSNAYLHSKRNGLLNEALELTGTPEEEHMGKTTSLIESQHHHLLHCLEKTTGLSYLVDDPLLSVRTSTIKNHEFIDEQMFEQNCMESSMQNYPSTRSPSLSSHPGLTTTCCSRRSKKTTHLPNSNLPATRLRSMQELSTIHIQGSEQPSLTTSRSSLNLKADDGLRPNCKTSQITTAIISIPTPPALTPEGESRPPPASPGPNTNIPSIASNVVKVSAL
From the text: A C. elegans based high-throughput screen for Kv4.3 modulators has been used to establish an in vivo SAR (structure-activity relationships: the effect of chemical structure on biological activity) on Kv4.3 for the compounds according to the present invention.
This assay has employed a stable transgenic C. elegans strain that functionally expressed human Kv4.3 in the pharynx and a visible selection GFP maker in body-wall muscle.
The pharynx is the feeding organ of C. elegans and contracts rhythmically 3-4 times per second. The pharynx contraction is controlled by the nervous system via action potentials similar to the human myocyte and can thus be used to study human ion channel physiology in vivo in C. elegans.
Introducing the human Kv4.3 channel into the C. elegans pharynx influences the C. elegans action potential in a characteristic fashion. The additional number of potassium channels increases potassium ion efflux, enhances re-polarization and thereby shortens the action potential duration. […] The shortened action potentials of the C. elegans pharynx resulting from expression of human Kv4.3, changes the pharynx contraction-relaxation cycle and consequently reduces the pumping/feeding in these transgenic animals. This change of pumping is an end-point amenable to high-throughput screening technology. The pumping end-point can be technically translated into a high-throughput read-out by the use of a pro-fluorescent dye. The pro-fluorescent dye is taken up by C. elegans depending on its pumping activity and converted into a fluorescent dye by enzymes located in its intestines. After a defined incubation period, the change of fluorescence intensity in the intestine can be measured with a plate reader.
as §1
The active compounds have been identified and confirmed by dose-response analysis. An EC50 has been calculated and the results are listed under Table 3. Dose-response curves have been obtained at concentrations of 30 μM. EC50 has been calculated using XLfit 2.09 software package.

[3] = molecular target: T2, human Kv4.3/KChIP2.2 potassium channel (Homo sapiens, UniProt Q9UK17); experiment: Whole cell patch clamp, CHO-K1 cells stably expressing human Kv4.3/KChIP2.2; assay type: cell-based; conditions: Kv4.3 mediated current, charge; patch clamp; read-out: Kv4.3 charge IC50
T2 construct: expressed in transfected cells
T2 sequence (Q9UK17 1-655): T1 sequence (Q9UK17 1-655)

human Kv4.3 [4] = molecular target: T1, human Kv4.3; experiment: Electropharyngeogram (EPG) recording on dissected pharynxes of transgenic C. elegans strain UG1755
Description: The method to describe the construction of a transgenic C. elegans strain expressing human Kv4.3 has been described in WO 03/097682. Briefly, the actual used strain UG1755 has been generated by microinjection into the gonad of a wild-type strain N2 with a mix of 5 ng/μl plasmid pGV8 (human Kv4.3), 20 ng/μl pDW2821 (GFP-marker) and 40 ng/ul genomic C. elegans DNA. Transgenic animals have been isolated and submitted to integration of the extra-chromosomal array into the genome of C. elegans. A line with 50% transmission of the functional expressed human Kv4.3 has been mutagenized with gamma irradiation using a Cobalt source. About 12000 F2 animals have been singled out and their progeny has been screened for the 100% transmission of the GFP marker. Lines with 100% transmission of GFP have been considered as potentially integrated. These lines have been further tested and out-crossed with N2 strain two-times. All lines obtained have been tested for viability, GFP and human Kv4.3 expression. At the end of a selection process, UG1755 was identified as most suitable C. elegans strain amenable to high throughput screening (HTS). […] Briefly, dissected pharynxes of UG1755 C. elegans animals have been prepared and Electropharyngeograms (EPGs) have been recorded using an Axopatch-1D amplifier (Axon instruments). […] The number of ultra short EPGs (10-20 ms) and normal EPGs (100-200 ms) has been analyzed and given as ratio in percentage. […] In addition, standard qRT-PCR confirmed the presence of the human Kv4.3 transgene in UG1755 as well as human Kv4.3 protein has been detected with the human Kv4.3 antibody P 0358 in the pharynx of UG1755 animals.
Introducing the human Kv4.3 channel into the C. elegans pharynx influences the C. elegans action potential in a characteristic fashion. […] The pumping end-point can be technically translated into a high-throughput read-out by the use of a pro-fluorescent dye. […] After a defined incubation period, the change of fluorescence intensity in the intestine can be measured with a plate reader.

Ratio N2/Kv4.3 (human Kv4.3 [2])	EC50 (human Kv4.3 [2])	IC50 [3]	EC50 ([1]; Caenorhabditis elegans)	After Application of Compound Ratio Ultra short to Normal EPGs in % (human Kv4.3 [4]; 100 μM Flecainide, strain UG1755, n = 15, before application 83 ± 13)	Molecule	EC50 [1]	ultra short action potentials of the human Kv4.3 transgenic C. elegans pharynx (human Kv4.3 [4])
–	–	–	–	–	Nc1ccncc1 [4-aminopyridine]	–	restored to normal action potentials
>2.3	25 µM	1.72 µM	> 60 µM	–	Cc1nc(Nc2ccc(Br)cc2)sc1C(=O)NCc1ccccc1 [Compound 20, 2-(4-bromo-phenylamino)-4-methyl-thiazole-5-carboxylic acid benzylamide]	–	–
2.8	14.6 µM	0.55 µM	41 µM	–	Cc1nc(Nc2ccc(Br)cc2)sc1C(=O)NCc1ccc([N+](=O)[O-])cc1 [Compound 23, 2-(4-bromo-phenylamino)-4-methyl-thiazole-5-carboxylic acid 4-nitro-benzylamide]	–	–
>2.5	12.1 µM	3.46 µM	–	–	O=C(N[C@@H]1CCC[C@H]1OCc1ccccc1)c1csc(Nc2ccc(Cl)cc2)n1 [Compound 40, 2-(4-chloro-phenylamino)-thiazole-4-carboxylic acid (1R,2R)-2-(benzyloxycyclopent-1-yl) amide]	> 30 µM	–
2.0	21.4 µM	–	43 µM	–	CCCN(Cc1ccc([N+](=O)[O-])cc1)C(=O)c1csc(Nc2ccc(Cl)cc2)n1 [Compound 42, 2-(4-chloro-phenylamino)-thiazole-4-carboxylic acid (4-nitro-benzyl)-propyl-amide]	–	–
1.8	18.9 µM	–	35 µM	–	Cc1cccc(C)c1Nc1nc(C(=O)N[C@H](C)c2ccc([N+](=O)[O-])cc2)cs1 [Compound 43, 2-(2,6-dimethyl-phenylamino)-thiazole-4-carboxylic acid (R)-1-(4-nitro-phenyl)ethyl amide]	–	–
3.5	11.5 µM	–	39.5 µM	–	COC[C@H](Cc1ccccc1)NC(=O)c1csc(Nc2cc(C)cc(C)c2)n1 [Compound 44, 2-(3,5-dimethyl-phenylamino)-thiazole-4-carboxylic acid (S)-(1-methoxymethyl-2-phenyl-ethyl)-amide]	–	–
28.0	1.3 µM	–	37 µM	–	Cc1cc(C)cc(Nc2nc(C(=O)N[C@@H]3CCC[C@H]3OCc3ccccc3)cs2)c1 [Compound 45, 2-(3,5-dimethyl-phenylamino)-thiazole-4-carboxylic acid (1R,2R)-2-(benzyloxycyclopent-1-yl)-amide]	–	–
2.8	14 µM	–	39 µM	–	Cc1cc(C)cc(Nc2nc(C(=O)N[C@H]3CCCC[C@@H]3OCc3ccccc3)cs2)c1 [Compound 46, 2-(3,5-dimethyl-phenylamino)-thiazole-4-carboxylic acid (1S,2S)-2-(benzyloxycyclohex-1-yl) amide]	–	–
14.9	2 µM	2.47 µM	29.8 µM	–	O=C(N[C@@H]1CCC[C@H]1OCc1ccccc1)c1csc(Nc2ccccc2)n1 [Compound 48, 2-phenylaminothiazole-4-carboxylic acid (1R,2R)-2-(benzyloxycyclopent-1-yl) amide]	–	–
>1.8	17 µM	–	> 30 µM	–	COc1ccc(Cl)cc1Nc1nc(C(=O)N[C@@H]2CCCC[C@H]2OCc2ccccc2)cs1 [Compound 51, 2-(5-chloro-2-methoxy-phenylamino)-thiazole-4-carboxylic acid (1R,2R)-2-(benzyloxycyclohex-1-yl) amide]	–	–
–	–	–	–	53 ± 24%	O=C(NCC1CCCCN1)c1cc(OCC(F)(F)F)ccc1OCC(F)(F)F (centres unmarked) [Flecainide]	–	restored to normal action potentials

Molecule	Ratio N2/Kv4.3 (human Kv4.3 [2])	EC50 (human Kv4.3 [2])	IC50 [3]	EC50 ([1]; Caenorhabditis elegans)	After Application of Compound Ratio Ultra short to Normal EPGs in % (human Kv4.3 [4]; 100 μM Flecainide, strain UG1755, n = 15, before application 83 ± 13)	EC50 [1]	ultra short action potentials of the human Kv4.3 transgenic C. elegans pharynx (human Kv4.3 [4])
2-(4-bromo-phenylamino)-4-methyl-thiazole-5-carboxylic acid (1R,2R)-2-(benzyloxycyclopent-1-yl) amide [Compound 25]	>25	10.3 µM	1.32 µM	–	–	> 30 µM	–

Reference: US20080125432A1 (Devgen NV, priority 2004, published 2008)
